Data set [1] has as its system mTOR phosphorylation in Pkd1^null/null cells. Briefly: mTOR phosphorylation (Western blot phospho-mTOR / total mTOR) in Pkd1 null/null cells. It counts as cell-based, mouse. To be noted: c-Met inhibitor 5 mM for 40 min (FIG. 1 legend) / 5 μM, 4 hours (Example 5), FIG. 1a, b. As for the experimental part: Pkd1 wild type (WT) and Pkd1^null/null cell line were isolated from embryonic day 15.5 kidneys from a cross of Pkd1^null/+ mice that also carry a temperature-sensitive simian virus 40 (SV40) large T-antigen transgene, similar with the protocol described in reference 23. Wt and Pkd1^null/null cells were cultured in Dulbecco's modified Eagle medium containing 2% fetal bovine serum, 0.75 μg/L γ-interferon, 1.0 g/L insulin, 0.67 mg/L sodium selenite, 0.55 g/L transferrin, 36 ng/ml hydrocortisone, 100 U/ml Penicillin/streptomycin under 33° C. and 5% CO2^23.
Immunoprecipitation and western-blot were performed using whole cell lysates unless otherwise specified. Confluent cells were collected, washed with PBS, lysed with lysis buffer (20 mM Tris/HCl, 1 mM EDTA, 150 mM NaCl, 1% Triton X-100) containing proteinase inhibitor cocktail tablet (Roche #1697498, Mannheim, Germany) at 4° C. for 30 minutes. After centrifugation at 13,000 rpm for 15 minutes, supernatants were incubated with specific antibody at 4° C. for 1 hour, followed by incubation with Protein G conjugated beads (Pierce Biotechnology, IL) at 4° C. for 2 hours, washed in lysis buffer. Samples were running on 7.5% acrylamide gel, transferred to PVDF membranes and visualized by immunoblotting with respective antibodies. […]
(In general: A western blot detects proteins with antibodies after separation by electrophoresis.)

The test system of data set [2] is Pkd1^null/null embryonic kidneys. Briefly: Embryonic kidney organ culture model of PKD (8-Br-cAMP-induced cyst formation, H&E sections). The format is cell-based, mouse. To be noted: 96 hours of culture. The method, then:
Embryonic mice kidneys of E13.5 were dissected out and cultured in media^29 (1% FBS, 5 mg/ml Transferin, 0.05 mM Sodium Selenite, 100 nM hydrocortisone, 2 nM T3, 25 ng/ml PGE1, 100 U/ml Penicillin/streptomycin, 100 mM 8-Br-cAMP) in Center-Well Organ Culture Dish (BD Labware, Franklin Lakes, N.J.). The following day, the kidneys from the same embryo were treated with either […] Met Kinase Inhibitor (Calbiochem, La Jolla, CA) or DMSO (the same volume with Met Kinase Inhibitor). The media were changed everyday with the same additives as above. After […], kidneys were fixed by 4% PFA, and embedded in paraffin. Paraffin sections were stained with hematoxylin and eosin.
Embryonic mice kidneys of E13.5 were dissected out and cultured in media (1% FBS, 5 mg/ml Transferin, 0.05 mM Sodium Seelenite, 100 nM hydrocortisone, 2 nM T3, 25ng/ml PGE1, 100 U/ml Penicillin/streptomycin, 100 mM 8-Br-cAMP) in Center-Well Organ Culture Dish (BD Labware, Franklin Lakes, N.J.). The following day, the kidneys from the same embryo were treated with either 2 microgram/ml c-MET blocking antibody (R&D Systems, Minneapolis, Minn.) or PBS (the same volume with c-Met blocking antibody). The media were changed everyday with the same additives as above. After 4 days, kidneys were fixed by 4% PFA, and embedded in paraffin. Paraffin sections were stained with hematoxylin and eosin.
E13.5 embryonic kidneys were put in organ culture along with 100 μM 8-Br-cAMP, with or without 5 μM c-MET inhibitor (SU11274, from Calbiochem). (B) E13.5 embryonic kidneys were put in organ culture along with 100 mM 8-Br-cAMP, with or without 5 μg/ml c-MET neutralizing antibody (R&D Systems). (C) E13.5 embryonic kidneys were put in organ culture along with 100 mM 8-Br-cAMP, with or without 0.5 μM c-MET inhibitor (PHA665752, from Tocris, UK). Hematoxylin & Eosin stained sections of kidneys are shown after 96 hours of culture.

The mark [3] stands for this setting: FIG. 6, Pkd1^null/null kidneys at E15.5, 10 mM 8-Br-cAMP, 5 μM c-MET inhibitor.

Entries after “also recorded” stand apart in the source; their conditions may differ.

For `Cc1[nH]c(/C=C2\C(=O)Nc3ccc(S(=O)(=O)N(C)c4cccc(Cl)c4)cc32)c(C)c1C(=O)N1CCN(C)CC1` [SU11274, (3Z)-N-(3-chlorophenyl)-3-({3,5-dimethyl-4-[(4-methylpiperazin-1-yl)carbonyl]-1H-pyrrol-2-yl}methylene)-N-methyl-2-oxoindoline-5-sulfonamide], the mTOR phosphorylation entry is on record as “inhibited” in data set [1] and “reduced mTOR phosphorylation in Pkd1^null/null cells, to a baseline level observed in WT cells” in data set [1] (listed as Met Kinase Inhibitor). Moreover, the cyst formation entry in data set [2] (setting [3]) is given as “reduced cyst formation in organ culture by Pkd1^null/null mutant kidneys to the basal level observed in WT kidneys; also recorded: decreased”; in data set [2] (FIG. 7A, E13.5 Pkd1 null/null kidneys, 100 μM 8-Br-cAMP, 5 μM) it was “decreased”. Moreover, in data set [2] (setting [3]), the “size and number of cysts” value is “decreased”. Also, the effect on nephrogenesis result in data set [2] (FIG. 6, wild type and Pkd1^null/null kidneys, 5 μM c-MET inhibitor, listed as c-MET inhibitor) was “no apparent effect”; in data set [2] (FIG. 6, wild type and Pkd1^null/null kidneys, 5 μM c-MET inhibitor, listed as c-Met inhibitor) it was “did not have a marked effect”; in data set [2] (FIG. 7A, E13.5 kidneys, 100 μM 8-Br-cAMP, 5 μM) it was “no apparent effect”.

Turning to `Cc1[nH]c(/C=C2\C(=O)Nc3ccc(S(=O)(=O)Cc4c(Cl)cccc4Cl)cc32)c(C)c1C(=O)N1CCC[C@@H]1CN1CCCC1` [PHA665752, (2R)-1-[[5-[(Z)45-[[(2,6-Dichlorophenyl)methyl]sulfony 1]-1,2-dihydro-2-oxo-3H-indo1-3-ylidenelmethyl]-2,4-dimethyl-1H-pyrrol-3-yl]carbonyl]-2-(1-pyrrolidinylmethyl) pyrrolidone], in data set [2] (FIG. 7C, E13.5 Pkd1 null/null kidneys, 100 mM 8-Br-cAMP, 0.5 μM), the cyst formation result is on record as “decreased”. Moreover, the effect on nephrogenesis result in data set [2] (FIG. 7C, E13.5 kidneys, 100 mM 8-Br-cAMP, 0.5 μM) is “no apparent effect”.

Source of the values: patent US20110020326A1, “METHOD OF TREATING POLYCYSTIC KIDNEY DISEASE” (CHILDREN'S MEDICAL CENTER CORPORATION, priority 2008, published 2011).
